Laboratory results: ChEMBL document CHEMBL3885881, “DrugMatrix”

Organism: Rattus norvegicus
Assay: DrugMatrix - Regimen: Daily Repeat
Type: toxicity, organism-based, Sprague-Dawley
Parameters: regimen Daily Repeat, gender Male, age 6-8 weeks
Conditions: in vivo, po, route oral GAVAGE, vehicle .5 % CMC; for ABSOLUTE BASOPHIL / ABSOLUTE EOSINOPHIL / ABSOLUTE LYMPHOCYTE / ABSOLUTE MONOCYTE / ABSOLUTE SEGMENTED NEUTROPHIL / BASOPHIL / EOSINOPHIL / ERYTHROCYTE COUNT / HEMATOCRIT / HEMOGLOBIN / LEUKOCYTE COUNT / LYMPHOCYTE / MEAN CORPUSCULAR HEMOGLOBIN / MEAN CORPUSCULAR HEMOGLOBIN CONCENTRATION / MEAN CORPUSCULAR VOLUME / MONOCYTE / NEUTROPHIL / NUCLEATED RED BLOOD CELLS / PLATELET COUNT: tissue Blood; for ALANINE AMINOTRANSFERASE / ALBUMIN / ALKALINE PHOSPHATASE / ASPARTATE AMINOTRANSFERASE / BLOOD UREA NITROGEN / CARBON DIOXIDE / CHLORIDE / CHOLESTEROL / CREATINE PHOSPHOKINASE / CREATININE / GLUCOSE / LACTATE DEHYDROGENASE / LIPASE / PHOSPHORUS / POTASSIUM / SODIUM / TOTAL BILIRUBIN / TOTAL PROTEIN / URIC ACID: tissue Plasma
[1] = 22 mg/kg, 72 h, dose level High, time 3 day
[2] = 22 mg/kg, 120 h, dose level High, time 5 day
[3] = […], 72 h, dose 2.2 mg/Kg, dose level Low, time 3 day
[4] = […], 120 h, dose 2.2 mg/Kg, dose level Low, time 5 day

## Cc1cc(C(C#N)c2ccc(Cl)cc2)c(Cl)cc1NC(=O)c1cc(I)cc(I)c1O (configuration not stated) [CLOSANTEL]
[1]
  ABSOLUTE BASOPHIL: 0 CELLS/uL
  ABSOLUTE EOSINOPHIL: 101.33 CELLS/uL
  ABSOLUTE LYMPHOCYTE: 16742.67 CELLS/uL
  ABSOLUTE MONOCYTE: 54 CELLS/uL
  ABSOLUTE SEGMENTED NEUTROPHIL: 802 CELLS/uL
  BASOPHIL: 0%
  EOSINOPHIL: 0.67%
  ERYTHROCYTE COUNT: 4.94 x10E6/uL
  HEMATOCRIT: 31.43%
  HEMOGLOBIN: 12.7 G/DL
  LEUKOCYTE COUNT: 17.7 x10E3/uL
  LYMPHOCYTE: 94.67%
  MEAN CORPUSCULAR HEMOGLOBIN: 25.77 pg
  MEAN CORPUSCULAR HEMOGLOBIN CONCENTRATION: 40.4 G/DL
  MEAN CORPUSCULAR VOLUME: 63.77 fL
  MONOCYTE: 0.33%
  NEUTROPHIL: 4.33%
  NUCLEATED RED BLOOD CELLS: 0 /100WBC
  PLATELET COUNT: 1110.67 x10E3/uL
  ALANINE AMINOTRANSFERASE: 49.67 u/L
  ALBUMIN: 4.27 G/DL
  ALKALINE PHOSPHATASE: 612.33 u/L
  ASPARTATE AMINOTRANSFERASE: 122.67 u/L
  BLOOD UREA NITROGEN: 16.33 mg/dL
  CARBON DIOXIDE: 27.67 mmol/L
  CHLORIDE: 103.67 MEQ/L
  CHOLESTEROL: 73 mg/dL
  CREATINE PHOSPHOKINASE: 369 u/L
  CREATININE: 0.19 mg/dL
  GLUCOSE: 171.33 mg/dL
  LACTATE DEHYDROGENASE: 163.67 u/L
  LIPASE: 9 u/L
  PHOSPHORUS: 12.43 mg/dL
  POTASSIUM: 6.8 MEQ/L
  SODIUM: 145.83 MEQ/L
  TOTAL BILIRUBIN: 0.2 mg/dL
  TOTAL PROTEIN: 5.73 G/DL
  URIC ACID: 2.13 mg/dL
[2]
  ABSOLUTE BASOPHIL: 0 CELLS/uL
  ABSOLUTE EOSINOPHIL: 0 CELLS/uL
  ABSOLUTE LYMPHOCYTE: 18393.33 CELLS/uL
  ABSOLUTE MONOCYTE: 203.33 CELLS/uL
  ABSOLUTE SEGMENTED NEUTROPHIL: 2403.33 CELLS/uL
  BASOPHIL: 0%
  EOSINOPHIL: 0%
  ERYTHROCYTE COUNT: 5.7 x10E6/uL
  HEMATOCRIT: 36.13%
  HEMOGLOBIN: 14.47 G/DL
  LEUKOCYTE COUNT: 21 x10E3/uL
  LYMPHOCYTE: 87.33%
  MEAN CORPUSCULAR HEMOGLOBIN: 25.4 pg
  MEAN CORPUSCULAR HEMOGLOBIN CONCENTRATION: 40.03 G/DL
  MEAN CORPUSCULAR VOLUME: 63.4 fL
  MONOCYTE: 1%
  NEUTROPHIL: 11.67%
  NUCLEATED RED BLOOD CELLS: 0.33 /100WBC
  PLATELET COUNT: 1280.33 x10E3/uL
  ALANINE AMINOTRANSFERASE: 76 u/L
  ALBUMIN: 4.63 G/DL
  ALKALINE PHOSPHATASE: 586.33 u/L
  ASPARTATE AMINOTRANSFERASE: 169.33 u/L
  BLOOD UREA NITROGEN: 25 mg/dL
  CARBON DIOXIDE: 32 mmol/L
  CHLORIDE: 101.67 MEQ/L
  CHOLESTEROL: 84 mg/dL
  CREATINE PHOSPHOKINASE: 365.33 u/L
  CREATININE: 0.32 mg/dL
  GLUCOSE: 141.67 mg/dL
  LACTATE DEHYDROGENASE: 335.67 u/L
  LIPASE: 11.67 u/L
  PHOSPHORUS: 11.47 mg/dL
  POTASSIUM: 7.16 MEQ/L
  SODIUM: 143.5 MEQ/L
  TOTAL BILIRUBIN: 0.2 mg/dL
  TOTAL PROTEIN: 6 G/DL
  URIC ACID: 1.9 mg/dL
[3]
  ABSOLUTE BASOPHIL: 0 CELLS/uL
  ABSOLUTE EOSINOPHIL: 27.33 CELLS/uL
  ABSOLUTE LYMPHOCYTE: 7010.67 CELLS/uL
  ABSOLUTE MONOCYTE: 50 CELLS/uL
  ABSOLUTE SEGMENTED NEUTROPHIL: 645.33 CELLS/uL
  BASOPHIL: 0%
  EOSINOPHIL: 0.33%
  ERYTHROCYTE COUNT: 5.2 x10E6/uL
  HEMATOCRIT: 33.97%
  HEMOGLOBIN: 13.53 G/DL
  LEUKOCYTE COUNT: 7.73 x10E3/uL
  LYMPHOCYTE: 90.33%
  MEAN CORPUSCULAR HEMOGLOBIN: 26.1 pg
  MEAN CORPUSCULAR HEMOGLOBIN CONCENTRATION: 39.83 G/DL
  MEAN CORPUSCULAR VOLUME: 65.4 fL
  MONOCYTE: 0.67%
  NEUTROPHIL: 8.67%
  NUCLEATED RED BLOOD CELLS: 0 /100WBC
  PLATELET COUNT: 1123.67 x10E3/uL
  ALANINE AMINOTRANSFERASE: 51 u/L
  ALBUMIN: 4.37 G/DL
  ALKALINE PHOSPHATASE: 453.33 u/L
  ASPARTATE AMINOTRANSFERASE: 101.67 u/L
  BLOOD UREA NITROGEN: 17.33 mg/dL
  CARBON DIOXIDE: 35.33 mmol/L
  CHLORIDE: 98.67 MEQ/L
  CHOLESTEROL: 78.67 mg/dL
  CREATINE PHOSPHOKINASE: 529.33 u/L
  CREATININE: 0.26 mg/dL
  GLUCOSE: 127 mg/dL
  LACTATE DEHYDROGENASE: 156.67 u/L
  LIPASE: 9.67 u/L
  PHOSPHORUS: 11.27 mg/dL
  POTASSIUM: 6.78 MEQ/L
  SODIUM: 144.6 MEQ/L
  TOTAL BILIRUBIN: 0.17 mg/dL
  TOTAL PROTEIN: 6.27 G/DL
  URIC ACID: 0.93 mg/dL
[4]
  ABSOLUTE BASOPHIL: 0 CELLS/uL
  ABSOLUTE EOSINOPHIL: 0 CELLS/uL
  ABSOLUTE LYMPHOCYTE: 9886.33 CELLS/uL
  ABSOLUTE MONOCYTE: 68.67 CELLS/uL
  ABSOLUTE SEGMENTED NEUTROPHIL: 945 CELLS/uL
  BASOPHIL: 0%
  EOSINOPHIL: 0%
  ERYTHROCYTE COUNT: 5.61 x10E6/uL
  HEMATOCRIT: 35.17%
  HEMOGLOBIN: 14 G/DL
  LEUKOCYTE COUNT: 10.9 x10E3/uL
  LYMPHOCYTE: 90.33%
  MEAN CORPUSCULAR HEMOGLOBIN: 24.93 pg
  MEAN CORPUSCULAR HEMOGLOBIN CONCENTRATION: 39.83 G/DL
  MEAN CORPUSCULAR VOLUME: 62.63 fL
  MONOCYTE: 0.67%
  NEUTROPHIL: 9%
  NUCLEATED RED BLOOD CELLS: 0 /100WBC
  PLATELET COUNT: 1205.67 x10E3/uL
  ALANINE AMINOTRANSFERASE: 49 u/L
  ALBUMIN: 4.43 G/DL
  ALKALINE PHOSPHATASE: 427.33 u/L
  ASPARTATE AMINOTRANSFERASE: 75 u/L
  BLOOD UREA NITROGEN: 18 mg/dL
  CARBON DIOXIDE: 29.67 mmol/L
  CHLORIDE: 103 MEQ/L
  CHOLESTEROL: 72.33 mg/dL
  CREATINE PHOSPHOKINASE: 164.33 u/L
  CREATININE: 0.18 mg/dL
  GLUCOSE: 146.67 mg/dL
  LACTATE DEHYDROGENASE: 113.67 u/L
  LIPASE: 8.33 u/L
  PHOSPHORUS: 13.67 mg/dL
  POTASSIUM: 7.15 MEQ/L
  SODIUM: 146.83 MEQ/L
  TOTAL BILIRUBIN: 0.23 mg/dL
  TOTAL PROTEIN: 6.6 G/DL
  URIC ACID: 1.7 mg/dL
